These results are taken from PubChem BioAssay AID2060333 (Molecular Pharmacology Branch, DTP, NCI, 2025).

Each structure is given as a SMILES string. Several values for one entry are separate records, joined by “and”; a condition that tells them apart may be missing. Identical values can stand only once.

The subject of this assay is 845751-090-R-J2-PDC tumor spheroid viability. Description: Anticancer human tumor 845751-090-R-J2-PDC patient-derived head and neck squamous carcinoma cell line growth inhibition [IpAb]. The note with it: spheroids with HUVEC and MSC; for viability, T/C: stronger effect = lower value. From the text: Combinatorial screen of targeted agents with ipatasertib and abemaciclib in multi-cell type tumor spheroids
A high-throughput screen of multi-cell type tumor spheroids was designed to identify active combinations of targeted small molecules and ipatasertib or abemaciclib. Complex spheroids include a stromal component modeled by human endothelial cells (HUVEC) and fibroblasts modeled by human mesenchymal stem cells (MSCs). The concentration ranges selected for each drug and investigational agent were based upon clinically achievable concentrations if the clinical Cmax of the agent was known.
Compounds. The drugs and investigational agents: ipatasertib (NSC767898), abemaciclib(NSC768073), selumetinib (NSC741078), trametinib (758246), adavosertib (NSC754352), everolimus (NSC733504), sapanisertib (NSC764658), vemurafenib (NSC761431), venetoclax (NSC766270), copanlisib (NSC809693), apelisib (NSC765974), palbociblib (NSC758247), vemurafenib (NSC761431), dabrafenib (NSC764134), ravoxertinib (NSC781343), BMS-387032 (NSC767048), sotorasib (NSC818433), talazoparib (NSC767125) and afursertib (NSC778305), were obtained from the National Cancer Institute (NCI) Developmental Therapeutics Program Chemical Repository. The FDA-approved anticancer drug set is available from the NCI Developmental Therapeutics Program. […] The stock solutions were prepared in dimethyl sulfoxide (DMSO, Sigma-Aldrich, St. Louis, MO, cat. D2650) at 800-fold the tested concentration and stored at -70 degrees C prior to their use. All drugs and investigational agents were tested over a range starting from a high concentration at or near the clinical Cmax and decreasing in half-log increments. If the clinical Cmax for an agent had not been determined, the highest concentration tested was 10 microM.
NCI60 Cell Culture. NCI60 cell lines were obtained from the NCI Developmental Therapeutics Program Tumor Repository. For each lot of cells, the Repository performed Applied Biosystems AmpFLSTR Identifiler testing with PCR amplification to confirm consistency with the published Identifier STR profile for each cell line. Cells were kept in continuous culture for no more than 20 passages. The optimal seeding densities for each of the cell lines at each time point assessed were determined prior to performing the concentration response studies. Briefly, the NCI60 human tumor lines were grown as monolayers in RPMI 1640 medium supplemented with 10% FBS and 2 mmol/L L-glutamine.
An additional 9 lines were from the NCI60 cell line panel including MDA-MB-231 breast carcinoma, MDA-MB-468 breast carcinoma, MCF7 breast carcinoma, Hs578T breast carcinoma, MALME-3M melanoma, SK-MEL-2 melanoma, SK-OV-3 ovarian carcinoma, DU-145 prostate carcinoma, PC-3 prostate carcinoma, all cell lines along with major genetic alterations are listed on Table 2. Pooled donor human umbilical vein endothelial cells (HUVEC, Lonza, cat. CC-2519) and human mesenchymal stem cells (hMSC, Lonza, cat. PT-2501) were purchased from Lonza (Walkersville, MD).
PDMR cell lines were grown in complete medium (DC medium): Dulbecco's modified Eagle's medium (DMEM)/F12 supplemented with 5% fetal bovine serum (FBS), 2 mM L-glutamine, 100 U/mL penicillin and 100 µg/ml streptomycin, 0.4 µg/ml hydrocortisone, 10 ng/ml epidermal growth factor (EGF) recombinant human protein, 24 µg/mL adenine, and 0.1 mg/mL primocin. During culture from frozen stock vials, PDMR cells were cultured in the same medium containing 10 µM Y-27632 (see Table 3). The PDCs were cultured in complete DMEM/F12 media without 10 microM Y-27632 dihydrochloride for at least two passages prior to the screen. The pooled donor HUVEC and hMSC were cultured in endothelial cell growth medium 2 (PromoCell, Heidelberg, Germany, cat. C-22011) and mesenchymal stem cell growth medium 2 (PromoCell, cat. C-28009), respectively. For all experiments, HUVEC and hMSC were used at passages </=5.
[…]
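Also: spheroids exposed to compounds for 7 days before readout.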
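For viability, T/C in this document: CTG3D luminescence normalised so that 100% = DMSO vehicle control.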

By viability, T/C is commonly meant the ratio of treated to control. For orientation: IC50 means the point on the concentration scale where inhibition reaches its midpoint. With `C=CC(=O)N1CCN(c2nc(=O)n(-c3c(C)ccnc3C(C)C)c3nc(-c4c(O)cccc4F)c(F)cc23)C(C)C1` (stereo not given), the viability, T/C was 84.1% and 78.2% (compound 0.0316 µM); 88.8% and 74.3% (compound 0.1 µM); 98.2% and 105% (compound 0.316 µM); 95.9% and 88.2% (compound 1 µM); 82.6% and 77.3% (compound 3.16 µM); 30.3% and 68.4% (compound 10 µM). Under “curve of compound”, the half-inhibitory concentration (IC50) is 6490 nM and > 10000 nM.

On to `C=CCn1c(=O)c2cnc(Nc3ccc(N4CCN(C)CC4)cc3)nc2n1-c1cccc(C(C)(C)O)n1`, for which the viability, T/C was 98.5% and 92.5% (compound 0.0316 µM); 75.5% and 64.4% (compound 0.1 µM); 70.1% and 55.9% (compound 0.316 µM); 68.8% and 58.6% (compound 1 µM); 68.3% and 69.5% (compound 3.16 µM); 49.5% and 53.6% (compound 10 µM). Moreover, the IC50 (curve of compound) is over 10000 nM.

In the case of `CC(=O)c1c(C)c2cnc(Nc3ccc(N4CCNCC4)cn3)nc2n(C2CCCC2)c1=O`, the viability, T/C was 86.5% and 84.4% (compound 0.000949 µM); 81.2% and 104% (compound 0.003 µM); 109% and 90.3% (compound 0.00949 µM); 133% and 91.8% (compound 0.03 µM); 112% and 101% (compound 0.0949 µM); 165% and 106% (compound 0.3 µM). The IC50 (curve of compound) was over 300 nM.

For the compound `CC(C)(C)c1cnc(CSc2cnc(NC(=O)C3CCNCC3)s2)o1`, the viability, T/C (compound 0.00949 µM) was 133% and 138%; the viability, T/C (compound 0.03 µM) was 147% and 141%; the viability, T/C (compound 0.0949 µM) is 50.3% and 77.6%; the viability, T/C (compound 0.3 µM) was 1.67% and 2.96%; the viability, T/C (compound 0.949 µM) was 1.36% and 1.78%; the viability, T/C (compound 3 µM) is 0.89% and 2.1%. Moreover, where the note is “curve of compound”, the IC50 is 95.6 nM and 145 nM.

For `CC(C)NCC(C(=O)N1CCN(c2ncnc3c2C(C)CC3O)CC1)c1ccc(Cl)cc1` (stereo not given), the viability, T/C runs as follows: (compound 1 µM) 30.2% [middle of 13 runs]; (compound 3.16 µM) 23.3% [middle of 13 runs]; (compound 10 µM) 14.6% [middle of 13 runs].

For the compound `CC(C)n1nc(-c2ccc3oc(N)nc3c2)c2c(N)ncnc21`, the viability, T/C runs as follows: (compound 0.000316 µM) 108% and 77.2%; (compound 0.001 µM) 81.4% and 72.8%; (compound 0.00316 µM) 58.9% and 50.4%; (compound 0.01 µM) 57.2% and 53.4%; (compound 0.0316 µM) 49.8% and 32.9%; (compound 0.1 µM) 26% and 20.3%. Besides, the IC50 (curve of compound) was 16.2 nM and 7.32 nM.

On to `CC1(C)CCC(CN2CCN(c3ccc(C(=O)NS(=O)(=O)c4ccc(NCC5CCOCC5)c([N+](=O)[O-])c4)c(Oc4cnc5[nH]ccc5c4)c3)CC2)=C(c2ccc(Cl)cc2)C1`, for which the viability, T/C is, setting by setting: (compound 0.0316 µM) 124% and 120%; (compound 0.1 µM) 111% and 103%; (compound 0.316 µM) 145% and 85.5%; (compound 1 µM) 198% and 117%; (compound 3.16 µM) 221% and 138%; (compound 10 µM) 37.6% and 25.7%. In addition, the IC50 (curve of compound) was 8900 nM and 7240 nM.

Consider `CCCS(=O)(=O)Nc1ccc(F)c(C(=O)c2c[nH]c3ncc(-c4ccc(Cl)cc4)cc23)c1F`, for which the viability, T/C was 134% and 78.5% (compound 0.0316 µM); 120% and 76.5% (compound 0.1 µM); 111% and 63% (compound 0.316 µM); 84.5% and 45.3% (compound 1 µM); 46.7% and 33.6% (compound 3.16 µM); 50.4% and 29.4% (compound 10 µM). For the setting “curve of compound”, the IC50 was 5550 nM and 737 nM.

Consider `CCN1CCN(Cc2ccc(Nc3ncc(F)c(-c4cc(F)c5nc(C)n(C(C)C)c5c4)n3)nc2)CC1`, for which the IC50 (compound alone, run of 05/18/2021) was over 1000 nM.

As to `COc1c(OCCCN2CCOCC2)ccc2c3n(c(=NC(=O)c4cnc(N)nc4)nc12)CCN3`, the viability, T/C runs as follows: (compound 0.00316 µM) 85.1% and 76.3%; (compound 0.01 µM) 62.6% and 60.3%; (compound 0.0316 µM) 36.9% and 35.4%; (compound 0.1 µM) 19.8% and 22.2%; (compound 0.316 µM) 13.8% and 16.1%; (compound 1 µM) 4.09% and 9.06%. Besides, the IC50 (curve of compound) was 17.6 nM and 16.1 nM.

Consider `Cc1nc(NC(=O)N2CCCC2C(N)=O)sc1-c1ccnc(C(C)(C)C(F)(F)F)c1` (stereo not given), for which the viability, T/C runs as follows: (compound 0.0316 µM) 79.1% and 55.6%; (compound 0.1 µM) 54.8% and 65.7%; (compound 0.316 µM) 36.8% and 46.5%; (compound 1 µM) 25.4% and 25%; (compound 3.16 µM) 17.9% and 18.6%; (compound 10 µM) 10.7% and 14.8%. In addition, where the note is “curve of compound”, the IC50 was 138 nM and 262 nM.

Consider `Cn1cnc2c(F)c(Nc3ccc(Br)cc3Cl)c(C(=O)NOCCO)cc21`, for which the viability, T/C by setting is: (compound 0.00949 µM) 107% and 165%; (compound 0.03 µM) 94.5% and 174%; (compound 0.0949 µM) 75% and 136%; (compound 0.3 µM) 82.8% and 125%; (compound 0.949 µM) 80.4% and 122%; (compound 3 µM) 65.8% and 67.1%. Further, the IC50 (curve of compound) was over 3000 nM.

With `Cn1ncc(Cl)c1-c1cc(C(=O)NC(CN)Cc2cccc(F)c2)sc1Cl` (stereo not given), the viability, T/C by setting is: (compound 0.0316 µM) 105% and 86.6%; (compound 0.1 µM) 76.1% and 51.8%; (compound 0.316 µM) 52.6% and 32.5%; (compound 1 µM) 38.7% and 29.1%; (compound 3.16 µM) 16% and 10.7%; (compound 10 µM) 1.14% and 1.09%. Under “curve of compound”, the IC50 is 466 nM and 139 nM.

For `Cn1nccc1Nc1nccc(-c2ccn(C(CO)c3ccc(Cl)c(F)c3)c(=O)c2)n1` (stereo not given), the viability, T/C was 128% and 195% (compound 0.0316 µM); 141% and 196% (compound 0.1 µM); 155% and 220% (compound 0.316 µM); 168% and 256% (compound 1 µM); 149% and 198% (compound 3.16 µM); 85.6% and 134% (compound 10 µM). Moreover, the IC50 (curve of compound) is over 10000 nM.

With `Cn1ncnc1[C@H]1c2n[nH]c(=O)c3cc(F)cc(c23)N[C@@H]1c1ccc(F)cc1`, the viability, T/C is, setting by setting: (compound 0.000316 µM) 81.7% and 97.4%; (compound 0.001 µM) 80% and 90.8%; (compound 0.00316 µM) 137% and 113%; (compound 0.01 µM) 105% and 91.3%; (compound 0.0316 µM) 100% and 106%; (compound 0.1 µM) 96.4% and 111%. In addition, the IC50 (curve of compound) is over 100 nM.
